# According to patent publication US8703183B2 (priority 2008, dated 2014):
# Tests used:
# Sprague Dawley rats = type: in vivo; details: for Mortality in males: single oral dose (metformin salts 1500 mg/kg, Glycine 871.6 mg/kg), male Sprague Dawley rats; for Glucose reducing effect: single oral dose, Glycine 871.6 mg/Kg, metformin glycinate 1500 mg/kg; for Time of lowest level of glucose in blood after administration: both sexes; for Time of lowest level of glucose in blood after administration / Blood glucose level compared to females from the control group: single oral administration; for Mortality in females: single oral dose 1500 mg/kg, female Sprague Dawley rats
# Protocol: . The following 14 days to administration, toxic effects were evaluated. […]; The cause to deaths was to a pronounced and fast drop in glycemia levels.
# [1] = tested on: Hepatic origin cells: CCL13; details: 250 mg/ml to 0.12 mg/ml, 24 and 72 hours exposure
# [2] = tested on: Kidney origin cells: CRL 1633; details: 250 mg/ml to 0.12 mg/ml, 24 and 72 hours exposure
# [3] = tested on: Primary cultures: hepatocytes; details: 250 mg/ml to 0.12 mg/ml, 24 and 72 hours exposure
# Wistar rats [4] = details: both, rat, in vivo, 28 days
# From the text: (§1) Number of animals: 50 Wistar rats, young adults 3 months of age, of both sexes, were used. Five batches with ten animals each. Four experimental groups (10 animals in each group) and a control group.
# (§2) After fasting, different doses (low, medium, high, and satellite and control groups) of the product were orally administered using an orogastric tube.
# (§3) • Low: 0.1 g/kg • Medium: 0.5 g/kg • High: 1.0 g/kg • Satellite 1.0 g/kg • Control: Only the carrier (Bidistilled water)
# Wistar rats [5] = experiment: Subacute toxicity study at 28 days (OECD Guideline 407); details: 0.1, 0.5, 1.0 g/kg oral
# From the text: as §1, §2, §3
SMILES,Mortality in males (Sprague Dawley rats),Glucose reducing effect (Sprague Dawley rats),Time of lowest level of glucose in blood after administration (Sprague Dawley rats),"Lactate level in plasma (Sprague Dawley rats; day of oral administration, 1500 mg/kg)",Blood glucose level compared to females from the control group (Sprague Dawley rats),Mortality in females (Sprague Dawley rats) [%],Cytotoxicity [1],Cytotoxicity [2],Cytotoxicity [3],Reversal of semi-pasty faeces during the course of the study (Wistar rats [4]) [th-11th],Probable dose for the non-observable adverse effect (extrapolation) (Wistar rats [4]; po) [mg/kg],Mortality during the 28-day study (Wistar rats [5])
"NCC(=O)O [Glycine, reference compound]",did not show mortality,did not show a marked glucose reducing affect,,,,,,,,,,
"CN(C)C(=N)NC(=N)N [Metformin glycinate, N,N-dimethylimidodicarbonimidic diamide glycinate]",did not show mortality,more pronounced reduction of glucose levels,three,increase of lactate level in plasma,"statistically significant lower blood glucose level 15 min, 30 min and also 3 and 6 hours after",30,not cytotoxic,not cytotoxic,not cytotoxic,9,500 to 1000,No mortality
"CN(C)C(=N)NC(=N)N.Cl [Metformin hydrochloride, reference compound]",did not show mortality,,three,,statistically lower blood glucose level 3 and 6 hours after,10,,,,,,
